Assay results from ChEMBL document CHEMBL3045247, “GUANIDINES: FROM MOLECULE TO PRIMATE” (2004).

Tests used:
Parameters in all cases: scale not given: the % may be the effect or the level left
[1] = tested on: Papio ursinus; assay: Cardioprotective activity in Papio ursinus (baboon) ischaemic reperfusion injury model assessed as reduction of heart rate at 2 mg/kg, iv after 2 min relative to control; type: functional
[2] = tested on: Papio ursinus; assay: Cardioprotective activity in Papio ursinus (baboon) ischaemic reperfusion injury model assessed as reduction of diastolic blood pressure at 1 mg/kg, iv after 25 min; type: functional, Artery
[3] = tested on: Papio ursinus; assay: Cardioprotective activity in Papio ursinus (baboon) ischaemic reperfusion injury model assessed as reduction of diastolic blood pressure at 1 mg/kg, iv after 20 min; type: functional, Artery
[4] = tested on: Papio ursinus; assay: Cardioprotective activity in Papio ursinus (baboon) ischaemic reperfusion injury model assessed as reduction of diastolic blood pressure at 1 mg/kg, iv after 15 min; type: functional, Artery
[5] = tested on: Papio ursinus; assay: Cardioprotective activity in Papio ursinus (baboon) ischaemic reperfusion injury model assessed as reduction of diastolic blood pressure at 1 mg/kg, iv after 10 min; type: functional, Artery
[6] = tested on: Papio ursinus; assay: Cardioprotective activity in Papio ursinus (baboon) ischaemic reperfusion injury model assessed as reduction of diastolic blood pressure at 1 mg/kg, iv after 6 min; type: functional, Artery
[7] = tested on: Papio ursinus; assay: Cardioprotective activity in Papio ursinus (baboon) ischaemic reperfusion injury model assessed as reduction of diastolic blood pressure at 1 mg/kg, iv after 4 min; type: functional, Artery
[8] = tested on: Papio ursinus; assay: Cardioprotective activity in Papio ursinus (baboon) ischaemic reperfusion injury model assessed as reduction of diastolic blood pressure at 1 mg/kg, iv after 2 min; type: functional, Artery
[9] = tested on: Papio ursinus; assay: Cardioprotective activity in Papio ursinus (baboon) ischaemic reperfusion injury model assessed as reduction of heart rate at 2 mg/kg, iv after 4 min relative to control; type: functional
[10] = tested on: Papio ursinus; assay: Cardioprotective activity in Papio ursinus (baboon) ischaemic reperfusion injury model assessed as reduction of diastolic blood pressure at 2 mg/kg, iv after 25 min; type: functional, Artery
[11] = tested on: Papio ursinus; assay: Cardioprotective activity in Papio ursinus (baboon) ischaemic reperfusion injury model assessed as reduction of diastolic blood pressure at 2 mg/kg, iv after 20 min; type: functional, Artery
[12] = tested on: Papio ursinus; assay: Cardioprotective activity in Papio ursinus (baboon) ischaemic reperfusion injury model assessed as reduction of diastolic blood pressure at 2 mg/kg, iv after 15 min; type: functional, Artery
[13] = tested on: Papio ursinus; assay: Cardioprotective activity in Papio ursinus (baboon) ischaemic reperfusion injury model assessed as reduction of diastolic blood pressure at 2 mg/kg, iv after 10 min; type: functional, Artery
[14] = tested on: Papio ursinus; assay: Cardioprotective activity in Papio ursinus (baboon) ischaemic reperfusion injury model assessed as reduction of diastolic blood pressure at 2 mg/kg, iv after 6 min; type: functional, Artery
[15] = tested on: Papio ursinus; assay: Cardioprotective activity in Papio ursinus (baboon) ischaemic reperfusion injury model assessed as reduction of diastolic blood pressure at 2 mg/kg, iv after 4 min; type: functional, Artery
[16] = tested on: Papio ursinus; assay: Cardioprotective activity in Papio ursinus (baboon) ischaemic reperfusion injury model assessed as reduction of systolic blood pressure at 1 mg/kg, iv after 25 min; type: functional, Artery
[17] = tested on: Papio ursinus; assay: Cardioprotective activity in Papio ursinus (baboon) ischaemic reperfusion injury model assessed as reduction of systolic blood pressure at 2 mg/kg, iv after 25 min; type: functional, Artery
[18] = tested on: Papio ursinus; assay: Cardioprotective activity in Papio ursinus (baboon) ischaemic reperfusion injury model assessed as reduction of systolic blood pressure at 2 mg/kg, iv after 20 min; type: functional, Artery
[19] = tested on: Papio ursinus; assay: Cardioprotective activity in Papio ursinus (baboon) ischaemic reperfusion injury model assessed as reduction of systolic blood pressure at 2 mg/kg, iv after 15 min; type: functional, Artery
[20] = tested on: Papio ursinus; assay: Cardioprotective activity in Papio ursinus (baboon) ischaemic reperfusion injury model assessed as reduction of systolic blood pressure at 2 mg/kg, iv after 6 min; type: functional, Artery
[21] = tested on: Papio ursinus; assay: Cardioprotective activity in Papio ursinus (baboon) ischaemic reperfusion injury model assessed as reduction of systolic blood pressure at 2 mg/kg, iv after 10 min; type: functional, Artery
[22] = tested on: Papio ursinus; assay: Cardioprotective activity in Papio ursinus (baboon) ischaemic reperfusion injury model assessed as reduction of systolic blood pressure at 2 mg/kg, iv after 4 min; type: functional, Artery
[23] = tested on: Papio ursinus; assay: Cardioprotective activity in Papio ursinus (baboon) ischaemic reperfusion injury model assessed as reduction of systolic blood pressure at 2 mg/kg, iv after 2 min; type: functional, Artery
[24] = tested on: Papio ursinus; assay: Cardioprotective activity in Papio ursinus (baboon) ischaemic reperfusion injury model assessed as reduction of heart rate at 1 mg/kg, iv after 25 min relative to control; type: functional
[25] = tested on: Papio ursinus; assay: Cardioprotective activity in Papio ursinus (baboon) ischaemic reperfusion injury model assessed as reduction of heart rate at 1 mg/kg, iv after 20 min relative to control; type: functional
[26] = tested on: Papio ursinus; assay: Cardioprotective activity in Papio ursinus (baboon) ischaemic reperfusion injury model assessed as reduction of heart rate at 1 mg/kg, iv after 15 min relative to control; type: functional
[27] = tested on: Papio ursinus; assay: Cardioprotective activity in Papio ursinus (baboon) ischaemic reperfusion injury model assessed as reduction of heart rate at 1 mg/kg, iv after 10 min relative to control; type: functional
[28] = tested on: Papio ursinus; assay: Cardioprotective activity in Papio ursinus (baboon) ischaemic reperfusion injury model assessed as reduction of heart rate at 1 mg/kg, iv after 6 min relative to control; type: functional
[29] = tested on: Papio ursinus; assay: Cardioprotective activity in Papio ursinus (baboon) ischaemic reperfusion injury model assessed as reduction of heart rate at 1 mg/kg, iv after 4 min relative to control; type: functional
[30] = tested on: Papio ursinus; assay: Cardioprotective activity in Papio ursinus (baboon) ischaemic reperfusion injury model assessed as reduction of diastolic blood pressure at 2 mg/kg, iv after 2 min; type: functional, Artery
[31] = tested on: Papio ursinus; assay: Cardioprotective activity in Papio ursinus (baboon) ischaemic reperfusion injury model assessed as reduction of systolic blood pressure at 1 mg/kg, iv after 20 min; type: functional, Artery
[32] = tested on: Papio ursinus; assay: Cardioprotective activity in Papio ursinus (baboon) ischaemic reperfusion injury model assessed as reduction of systolic blood pressure at 1 mg/kg, iv after 15 min; type: functional, Artery
[33] = tested on: Papio ursinus; assay: Cardioprotective activity in Papio ursinus (baboon) ischaemic reperfusion injury model assessed as reduction of systolic blood pressure at 1 mg/kg, iv after 10 min; type: functional, Artery
[34] = tested on: Papio ursinus; assay: Cardioprotective activity in Papio ursinus (baboon) ischaemic reperfusion injury model assessed as reduction of systolic blood pressure at 1 mg/kg, iv after 6 min; type: functional, Artery
[35] = tested on: Papio ursinus; assay: Cardioprotective activity in Papio ursinus (baboon) ischaemic reperfusion injury model assessed as reduction of systolic blood pressure at 1 mg/kg, iv after 4 min; type: functional, Artery
[36] = tested on: Papio ursinus; assay: Cardioprotective activity in Papio ursinus (baboon) ischaemic reperfusion injury model assessed as reduction of systolic blood pressure at 1 mg/kg, iv after 2 min; type: functional, Artery
[37] = tested on: Papio ursinus; assay: Cardioprotective activity in Papio ursinus (baboon) ischaemic reperfusion injury model assessed as reduction of heart rate at 1 mg/kg, iv after 2 min relative to control; type: functional
[38] = tested on: Papio ursinus; assay: Cardioprotective activity in Papio ursinus (baboon) ischaemic reperfusion injury model assessed as reduction of heart rate at 2 mg/kg, iv after 25 min relative to control; type: functional
[39] = tested on: Papio ursinus; assay: Cardioprotective activity in Papio ursinus (baboon) ischaemic reperfusion injury model assessed as reduction of heart rate at 2 mg/kg, iv after 20 min relative to control; type: functional
[40] = tested on: Papio ursinus; assay: Cardioprotective activity in Papio ursinus (baboon) ischaemic reperfusion injury model assessed as reduction of heart rate at 2 mg/kg, iv after 15 min relative to control; type: functional
[41] = tested on: Papio ursinus; assay: Cardioprotective activity in Papio ursinus (baboon) ischaemic reperfusion injury model assessed as reduction of heart rate at 2 mg/kg, iv after 10 min relative to control; type: functional
[42] = tested on: Papio ursinus; assay: Cardioprotective activity in Papio ursinus (baboon) ischaemic reperfusion injury model assessed as reduction of heart rate at 2 mg/kg, iv after 6 min relative to control; type: functional

Question: How did the Activity [1] turn out when COc1ccc(/C=N/NC(=N)N)c(Cl)c1OC was run?
Answer: 12.95%

Question: What about the Activity [2] of the same compound?
Answer: 20.31%

Question: What about the Activity [3] of the same compound?
Answer: 31.36%

Question: And the Activity [4]?
Answer: 15.16%

Question: What about the Activity [5] of the same compound?
Answer: 7.58%

Question: What about the Activity [6] of the same compound?
Answer: 3.8%

Question: And the Activity [7]?
Answer: 2.67%

Question: And the Activity [8]?
Answer: 0.02%

Question: And the Activity [9]?
Answer: 17.1%

Question: What about the Activity [10] of the same compound?
Answer: 2.78%

Question: What about the Activity [11] of the same compound?
Answer: 4.9%

Question: What about the Activity [12] of the same compound?
Answer: 2.2%

Question: And the Activity [13]?
Answer: 1.02%

Question: And the Activity [14]?
Answer: 1.78%

Question: What about the Activity [15] of the same compound?
Answer: 4.24%

Question: What about the Activity [16] of the same compound?
Answer: 16.22%

Question: What about the Activity [17] of the same compound?
Answer: 9.54%

Question: What about the Activity [18] of the same compound?
Answer: 8.48%

Question: And the Activity [19]?
Answer: 6.84%

Question: What about the Activity [20] of the same compound?
Answer: 5.72%

Question: What about the Activity [21] of the same compound?
Answer: 7.45%

Question: And the Activity [22]?
Answer: 3.1%

Question: And the Activity [23]?
Answer: 5.24%

Question: And the Activity [24]?
Answer: 18.28%

Question: What about the Activity [25] of the same compound?
Answer: 15.6%

Question: What about the Activity [26] of the same compound?
Answer: 15.47%

Question: What about the Activity [27] of the same compound?
Answer: 15.96%

Question: And the Activity [28]?
Answer: 14.6%

Question: What about the Activity [29] of the same compound?
Answer: 10.77%

Question: What about the Activity [30] of the same compound?
Answer: 10.1%

Question: And the Activity [31]?
Answer: 10.56%

Question: What about the Activity [32] of the same compound?
Answer: 9.36%

Question: What about the Activity [33] of the same compound?
Answer: 3.62%

Question: What about the Activity [34] of the same compound?
Answer: 0.26%

Question: What about the Activity [35] of the same compound?
Answer: 0.3%

Question: And the Activity [36]?
Answer: 0.02%

Question: And the Activity [37]?
Answer: 5.33%

Question: What about the Activity [38] of the same compound?
Answer: 27.74%

Question: What about the Activity [39] of the same compound?
Answer: 19.52%

Question: And the Activity [40]?
Answer: 19.68%

Question: What about the Activity [41] of the same compound?
Answer: 18.88%

Question: What about the Activity [42] of the same compound?
Answer: 18.96%
